The record followed here is article PMC12442448, “A third type of PETase from the marine Halopseudomonas lineage” (Protein Science : A Publication of the Protein Society, 2025).

Molecules are shown by their SMILES.

In this test the target is T1, HaloPETase1 (Halopseudomonas pachastrellae, UniProt A0A1S8DDV9).
T1 construct: gene BXT89_15940; N-terminal signal peptide removed; N-10xHis-SUMO tag cut with SenP2 (tag kept in agar-plate screen); extra N-terminal Ser and C-terminal Ala from FX cloning; E. coli Shuffle T7
T1 sequence (A0A1S8DDV9 24-289): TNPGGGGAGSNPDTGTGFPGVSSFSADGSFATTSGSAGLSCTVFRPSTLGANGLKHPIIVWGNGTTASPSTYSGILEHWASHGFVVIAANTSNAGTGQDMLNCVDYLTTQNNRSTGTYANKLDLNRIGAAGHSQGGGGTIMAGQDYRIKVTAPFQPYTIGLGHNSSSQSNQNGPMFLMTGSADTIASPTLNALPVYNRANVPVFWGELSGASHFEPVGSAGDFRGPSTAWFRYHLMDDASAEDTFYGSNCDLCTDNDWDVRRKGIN
Put plainly: absorbance at […] nm, initial rate (residual activity assay). The conditions noted are these: 1 mM substrate, 20 mM NaPi, pH 7.4, 150 mM NaCl, 1% DMSO; tag removed. The format is biochemical.

For the compound `CCCC(=O)Oc1ccc([N+](=O)[O-])cc1` [para‐nitrophenyl butyrate], the “absorbance at 405 nm, initial rate (residual activity assay)” value was “the residual activity was measured by a para‐nitrophenyl butyrate (pNPB) assay”.
